Common to all, as to type: in vivo
Assay [1] has as its system corn planthopper (Peregrinus maidis (Ashmead)). Nature of the assay: whole plant or invertebrate. The conditions noted are these: Peregrinus maidis, 144 h, 6 days; for mortality at 50 ppm: sprayed at 50 ppm; for mortality at 250 ppm: sprayed at 250 ppm; for mortality at 10 ppm: sprayed at 10 ppm. On the procedure:
(§1) Test compounds were formulated using a solution containing 10% acetone, […] and 300 ppm Activator 909 non-ionic surfactant (Loveland Products, Loveland, Colorado, USA). The formulated compounds were applied in 1 mL of liquid through an atomizer nozzle positioned 1.27 cm (0.5 inches) above the top of each test unit. Test compounds were sprayed at the rates indicated, and each test was replicated three times.
For evaluating control of corn planthopper (Peregrinus maidis (Ashmead)) through contact and/or systemic means, the test unit consisted of a small open container with a 3-4-day-old corn (maize) plant inside. White sand was added to the top of the soil prior to application of the test compound.
Test compounds were formulated and sprayed at 250 and/or 50 ppm and/or 10 ppm. After spraying of the formulated test compound, the test units were allowed to dry for 1 h before they were post-infested with ˜15-20 nymphs (18-to-21-day-old). A black, screened cap was placed on the top of each test unit, and the test units were held for 6 days in a growth chamber at 22-24° C. and 50-70% relative humidity. Each test unit was then visually assessed for insect mortality.

Assay [2] concerns green peach aphid (Myzus persicae (Sulzer)). Briefly: Test D: control of green peach aphid on radish plant, spray. The note with it: Myzus persicae, 144 h, 6 days; for mortality at 50 ppm: sprayed at 50 ppm; for mortality at 250 ppm: sprayed at 250 ppm. On the procedure: as §1
For evaluating control of green peach aphid (Myzus persicae (Sulzer)) through contact and/or systemic means, the test unit consisted of a small open container with a 12-15-day-old radish plant inside. This was pre-infested by placing on a leaf of the test plant 30-40 aphids on a piece of leaf excised from a culture plant (cut-leaf method). The aphids moved onto the test plant as the leaf piece desiccated. After pre-infestation, the soil of the test unit was covered with a layer of sand.
[…] After spraying of the formulated test compound, each test unit was allowed to dry for 1 hour and then a black, screened cap was placed on top. The test units were held for 6 days in a growth chamber at 19-21° C. and 50-70% relative humidity. Each test unit was then visually assessed for insect mortality.

Assay [3] deals with cotton melon aphid (Aphis gossypii (Glover)). Nature of the assay: whole plant or invertebrate. The note with it: Aphis gossypii, 144 h, 6 days; for mortality at 250 ppm: sprayed at 250 ppm; for mortality at 50 ppm: sprayed at 50 ppm. On the procedure: as §1
[…] This was pre-infested with 30-40 insects on a piece of leaf according to the cut-leaf method, and the soil of the test unit was covered with a layer of sand.
Test compounds were formulated and sprayed at 250 and/or 50 ppm. After spraying, the test units were maintained in a growth chamber for 6 days at 19° C. and 70% relative humidity. Each test unit was then visually assessed for insect mortality.

Turning to `Fc1cncc(-n2cncn2)c1C(F)c1ccc(SC(F)(F)F)cc1` (stereo not drawn) [Compound 2], the mortality at 50 ppm in assay [1] and in assay [2] was not below 80% in each case. Besides, the mortality at 250 ppm in assay [1], in assay [2] and in assay [3] was not below 80% in each case.

In assay [1], `Cc1ccn(-c2cncc(F)c2C(F)c2ccc(SC(F)(F)F)cc2)n1` (stereo not drawn) [Compound 5] displayed a mortality at 50 ppm not below 80%. In addition, the mortality at 250 ppm in assay [1] and in assay [2] was not below 80% each time.

Turning to `Cc1cnn(-c2cncc(F)c2C(F)c2ccc(SC(F)(F)F)cc2)c1` (stereo not drawn) [Compound 6], in assay [1], the mortality at 50 ppm is not below 80% and the mortality at 250 ppm was not below 80%.

In assay [1], `FC(c1ccc(OC(F)(F)F)cc1)c1ccncc1-n1ccnn1` (stereo not drawn) [Compound 10] gave a mortality at 50 ppm not below 80% and a mortality at 250 ppm not below 80%.

`COC(c1ccc(OC(F)(F)F)cc1)c1c(Cl)cncc1-n1nccn1` (stereo not drawn) [Compound 16]: the mortality at 50 ppm in assay [1], in assay [2] and in assay [3] was not below 80% in each case. Besides, the mortality at 250 ppm in assay [1], in assay [2] and in assay [3] was not below 80% in each case.

In assay [1], `Fc1cncc(-c2ccc[nH]2)c1C(F)c1ccc(OC(F)(F)F)cc1` (stereo not drawn) [Compound 26] gave a mortality at 50 ppm not below 80% and a mortality at 250 ppm not below 80%.

As for `Cc1cncc(-n2nccn2)c1C(F)c1ccc(OC(F)(F)F)cc1` (stereo not drawn) [Compound 38], in assay [1], the mortality at 10 ppm was not below 80%, the mortality at 50 ppm was not below 80% and the mortality at 250 ppm is not below 80%. In assay [2], this molecule had a mortality at 250 ppm not below 80%. Moreover, in assay [3], the mortality at 50 ppm is not below 80% and the mortality at 250 ppm is not below 80%.

On to `Fc1cncc(-c2nc[nH]n2)c1C(F)c1ccc(OC(F)(F)F)cc1` (stereo not drawn) [Compound 40], for which the mortality at 50 ppm in assay [1] was not below 80%.

In assay [1], `Fc1cncc(-c2ccsc2)c1C(F)c1ccc(OC(F)(F)F)cc1` (stereo not drawn) [Compound 46] registered a mortality at 10 ppm not below 80% and a mortality at 50 ppm not below 80%.

In assay [1], `Fc1cncc(-c2cscn2)c1C(F)c1ccc(OC(F)(F)F)cc1` (stereo not drawn) [Compound 49] yielded a mortality at 10 ppm not below 80%, a mortality at 50 ppm not below 80% and a mortality at 250 ppm not below 80%. Further, in assay [3], the mortality at 250 ppm was not below 80%.

In assay [3], `COC(c1ccc(OC(F)(F)F)cc1)c1c(Cl)cncc1-n1cccn1` (stereo not drawn) [Compound 52] had a mortality at 250 ppm not below 80%.

As for `O=S(=O)(c1ccc(C(F)c2c(F)cncc2-n2nccn2)cc1)C(F)(F)F` (stereo not drawn) [Compound 54], the mortality at 50 ppm in assay [2] and in assay [3] was not below 80% throughout. In addition, the mortality at 250 ppm in assay [2] and in assay [3] was not below 80% in each case.

`CCn1ccc(-c2cncc(F)c2C(F)c2ccc(OC(F)(F)F)cc2)n1` (stereo not drawn) [Compound 57]: in assay [1], the mortality at 50 ppm is not below 80%. Further, the mortality at 250 ppm in assay [3] was not below 80%.

`O=S(=O)(c1ccc(C(F)c2c(Br)cncc2-n2nccn2)cc1)C(F)(F)F` (stereo not drawn) [Compound 64] came in with a mortality at 50 ppm in assay [1] not below 80%. In assay [3], this molecule showed a mortality at 250 ppm not below 80%.

In the case of `COC(c1ccc(OC(F)(F)F)cc1)c1c(Br)cncc1-n1nccn1` (stereo not drawn) [Compound 65], in assay [1], the mortality at 50 ppm was not below 80%.

`FC(c1ccc(SC(F)(F)F)cc1)c1ccncc1-n1ccnn1` (stereo not drawn) [Compound 68] displayed a mortality at 250 ppm in assay [2] not below 80%. Also, in assay [3], the mortality at 50 ppm is not below 80% and the mortality at 250 ppm is not below 80%.

Take `COC(c1ccc([S+]([O-])C(F)(F)F)cc1)c1c(F)cncc1-n1cccn1` (stereo not drawn) [Compound 72]: the mortality at 250 ppm in assay [2] and in assay [3] was not below 80% throughout.

In assay [3], `[O-][S+](c1ccc(C(F)c2c(F)cncc2-n2cccn2)cc1)C(F)(F)F` (stereo not drawn) [Compound 73] displayed a mortality at 50 ppm not below 80% and a mortality at 250 ppm not below 80%.

Take `COC(c1ccc([S+]([O-])C(F)(F)F)cc1)c1c(F)cncc1-n1cncn1` (stereo not drawn) [Compound 74]: in assay [2], the mortality at 50 ppm is not below 80% and the mortality at 250 ppm is not below 80%. In assay [3], the mortality at 50 ppm is not below 80% and the mortality at 250 ppm was not below 80%.

In the case of `COC(c1ccc(SC(F)(F)F)cc1)c1c(F)cncc1-c1nccs1` (stereo not drawn) [Compound 75], the mortality at 250 ppm in assay [1] and in assay [3] was not below 80% in each case.

In assay [1], `COC(c1ccc(SC(F)(F)F)cc1)c1c(F)cncc1-c1ncco1` (stereo not drawn) [Compound 76] returned a mortality at 50 ppm not below 80% and a mortality at 250 ppm not below 80%. In assay [3], the mortality at 50 ppm is not below 80% and the mortality at 250 ppm is not below 80%.

`COC(c1ccc(SC(F)(F)F)cc1)c1c(F)cncc1-c1cc(C)no1` (stereo not drawn) [Compound 82] returned a mortality at 250 ppm in assay [1] not below 80%.

For the molecule `FC(c1ccc(SC(F)(F)F)cc1)c1c(Br)cncc1-n1cccn1` (stereo not drawn) [Compound 85], in assay [1], the mortality at 50 ppm is not below 80% and the mortality at 250 ppm is not below 80%. In assay [3], this molecule showed a mortality at 50 ppm not below 80% and a mortality at 250 ppm not below 80%.

`FC(c1ccc(SC(F)(F)F)cc1)c1c(Br)cncc1-n1ccnn1` (stereo not drawn) [Compound 87] yielded a mortality at 250 ppm in assay [2] not below 80%.

Regarding `[O-][S+](c1ccc(C(F)c2c(I)cncc2-n2nccn2)cc1)C(F)(F)F` (stereo not drawn) [Compound 97], the mortality at 250 ppm in assay [2] and in assay [3] was not below 80% throughout. Also, in assay [3], the mortality at 50 ppm is not below 80%.

In the case of `Fc1cncc(C2OCCCO2)c1C(F)c1ccc(SC(F)(F)F)cc1` (stereo not drawn) [Compound 98], in assay [1], the mortality at 10 ppm was not below 80%, the mortality at 50 ppm was not below 80% and the mortality at 250 ppm was not below 80%.

In assay [3], `FC(c1ccc(SC(F)(F)F)cc1)c1c(Cl)cncc1-n1cccn1` (stereo not drawn) [Compound 102] came in with a mortality at 50 ppm not below 80% and a mortality at 250 ppm not below 80%.

In assay [1], `FC(c1ccc(SC(F)(F)F)cc1)c1c(Cl)cncc1-c1ncno1` (stereo not drawn) [Compound 106] displayed a mortality at 10 ppm not below 80%, a mortality at 50 ppm not below 80% and a mortality at 250 ppm not below 80%. Also, in assay [3], the mortality at 50 ppm is not below 80% and the mortality at 250 ppm was not below 80%.

Consider `CC(C)(C)c1ccc(C(F)c2c(Cl)cncc2-n2nccn2)cc1` (stereo not drawn) [Compound 110], for which, in assay [1], the mortality at 10 ppm is not below 80%, the mortality at 50 ppm was not below 80% and the mortality at 250 ppm is not below 80%.

In assay [1], `Fc1cncc(-c2cccs2)c1C(F)c1ccc(SC(F)(F)F)cc1` (stereo not drawn) [Compound 111] had a mortality at 10 ppm not below 80%, a mortality at 50 ppm not below 80% and a mortality at 250 ppm not below 80%. Besides, in assay [3], the mortality at 50 ppm was not below 80% and the mortality at 250 ppm is not below 80%.

Take `Cc1sccc1-c1cncc(F)c1C(F)c1ccc(SC(F)(F)F)cc1` (stereo not drawn) [Compound 113]: in assay [1], the mortality at 10 ppm is not below 80%, the mortality at 50 ppm is not below 80% and the mortality at 250 ppm was not below 80%. In assay [3], the mortality at 50 ppm is not below 80% and the mortality at 250 ppm was not below 80%.

As to `Cc1cscc1-c1cncc(F)c1C(F)c1ccc(SC(F)(F)F)cc1` (stereo not drawn) [Compound 114], in assay [1], the mortality at 10 ppm was not below 80%, the mortality at 50 ppm is not below 80% and the mortality at 250 ppm was not below 80%.

In assay [1], `COC(c1ccc(OC(F)(F)F)cc1)c1c(F)cncc1-c1ncno1` (stereo not drawn) [Compound 138] returned a mortality at 50 ppm not below 80% and a mortality at 250 ppm not below 80%.

In assay [1], `COC(c1ccc(C(C)(C)C)cc1)c1c(F)cncc1-c1ncno1` (stereo not drawn) [Compound 139] had a mortality at 50 ppm not below 80% and a mortality at 250 ppm not below 80%.

Values taken from US12568969B2, “Pyridine compounds for controlling invertebrate pests” (FMC Corporation, priority 2020, dated 2026).
